Measured values: US6447748B1, “Benzamide compounds for cancer imaging and therapy” (Research Corporation Technologies, Inc., priority 1993, dated 2002)

Tests used:
[1] = tested on: human A2058 melanoma xenografts; test: Biodistribution in nude mice xenografted with human melanotic melanoma; type: in vivo, Balb/c nu/nu mice; conditions: for RATIO Tumor/Blood / RATIO Tumor/Muscle / Biodistribution Blood / Biodistribution Bone / Biodistribution Brain / Biodistribution Heart / Biodistribution Intestine / Biodistribution Kidney / Biodistribution Liver / Biodistribution Lung / Biodistribution Muscle / Biodistribution Spleen / Biodistribution Stomach / Biodistribution Thyroid / Biodistribution Tumor: nude mice, human melanotic melanoma, mean (std. dev.); for Biodistribution Blood / Biodistribution Bone / Biodistribution Brain / Biodistribution Heart / Biodistribution Intestine / Biodistribution Kidney / Biodistribution Liver / Biodistribution Lung / Biodistribution Muscle / Biodistribution Spleen / Biodistribution Stomach / Biodistribution Thyroid / Biodistribution Tumor: n = 6
Procedure: A2058 tumor cells, derived from a brain metastasis of human malignant melanoma (Todaro et al. 1980 Proc. Natl. Acad. Sci. USA 77:5258) were obtained from the National Institutes of Health. […] Suspension of 5×10^6 cells (viability greater than 95%) in 0.2 mL of medium were inoculated subcutaneously in female Balb/c nu/nu mice. After about two weeks, solid tumors of about 1 cm in diameter appeared in approximately 85% of all inoculated mice. […] Balb/c nu/nu mice (17-22 g) were injected intravenously with 0.2 ml of a saline solution containing [^125I]PAB (5-6 μCi). […] The values obtained were normalized to a mouse weighing 20 g. The differences between [^125I]PAB and [^125I]DAB were examined by Student's unpaired t tests.

[2] = tested on: human squamous cell carcinoma xenografts; test: Biodistribution in nude mice xenografted with human squamous cell carcinoma; type: in vivo, Balb/c nu/nu mice; conditions: for Biodistribution Blood / Biodistribution Bone / Biodistribution Brain / Biodistribution Heart / Biodistribution Intestine / Biodistribution Kidney / Biodistribution Liver / Biodistribution Lung / Biodistribution Spleen / Biodistribution Stomach / Biodistribution Thyroid / Biodistribution Tumor: nude mice, human squamous cell carcinoma, mean (std. dev.), n = 6
Procedure: Non-small cell lung carcinoma cell lines NCI-157, NCI-838 and NCI-1299 were obtained from the National Cancer Institute. The NCI-157 cell line is a squamous carcinoma cell line, while NCI-838 is an adenocarcinoma cell line and NCI-1299 is a large cell lung carcinoma cell. […] Suspension of 5×10^6 cells (viability greater than 95%) in 0.2 mL of medium were inoculated subcutaneously in female Balb/c nu/nu mice. After about two weeks, solid tumors of about 1 cm in diameter appeared in approximately 85% of all inoculated mice. […] Balb/c nu/nu mice (17-22 g) were injected intravenously with 0.2 ml of a saline solution containing [^125I]PAB (5-6 μCi). […] The values obtained were normalized to a mouse weighing 20 g.

RATIO Tumor/Blood ([1]; 1 Hour): 5.68 (2.75) | RATIO Tumor/Muscle ([1]; 1 Hour): 5.33 (1.65) | Biodistribution Blood ([1]; 1 Hour): 1.03 (.318) % ID/g | Biodistribution Bone ([1]; 1 Hour): 1.04 (.476) % ID/g | Biodistribution Brain ([1]; 1 Hour): 1.04 (.0855) % ID/g | Biodistribution Heart ([1]; 1 Hour): 1.67 (.210) % ID/g | Biodistribution Intestine ([1]; 1 Hour): 5.04 (1.47) % ID/g | Biodistribution Kidney ([1]; 1 Hour): 4.63 (.905) % ID/g | Biodistribution Liver ([1]; 1 Hour): 12.7 (1.69) % ID/g | Biodistribution Lung ([1]; 1 Hour): 6.32 (1.55) % ID/g | Biodistribution Muscle ([1]; 1 Hour): 0.988 (.125) % ID/g | Biodistribution Spleen ([1]; 1 Hour): 3.46 (.206) % ID/g | Biodistribution Stomach ([1]; 1 Hour): 3.84 (1.98) % ID/g | Biodistribution Thyroid ([1]; 1 Hour): 5.68 (1.02) % ID/g | Biodistribution Tumor ([1]; 1 Hour): 5.18 (1.31) % ID/g | RATIO Tumor/Blood ([1]; 6 Hour): 28.1 (5.84) | RATIO Tumor/Muscle ([1]; 6 Hour): 33.3 (14.0) | Biodistribution Blood ([1]; 6 Hour): 1.03 (0.197) % ID/g | Biodistribution Bone ([1]; 6 Hour): 0.100 (.0297) % ID/g | Biodistribution Brain ([1]; 6 Hour): 0.132 (.0204) % ID/g | Biodistribution Heart ([1]; 6 Hour): 0.150 (.0329) % ID/g | Biodistribution Intestine ([1]; 6 Hour): 0.423 (.0963) % ID/g | Biodistribution Kidney ([1]; 6 Hour): 0.435 (.0909) % ID/g | Biodistribution Liver ([1]; 6 Hour): 3.74 (.427) % ID/g | Biodistribution Lung ([1]; 6 Hour): 0.458 (.0993) % ID/g | Biodistribution Muscle ([1]; 6 Hour): 0.0967 (.0356) % ID/g | Biodistribution Spleen ([1]; 6 Hour): 0.260 (.0990) % ID/g | Biodistribution Stomach ([1]; 6 Hour): 0.475 (.164) % ID/g | Biodistribution Thyroid ([1]; 6 Hour): 0.400 (.124) % ID/g | Biodistribution Tumor ([1]; 6 Hour): 2.83 (.388) % ID/g | RATIO Tumor/Blood ([1]; 24 Hour): 15.5 (4.69) | RATIO Tumor/Muscle ([1]; 24 Hour): 39.7 (9.61) | Biodistribution Blood ([1]; 24 Hour): 0.0350 (0.0084) % ID/g | Biodistribution Bone ([1]; 24 Hour): 0.0133 (.0052) % ID/g | Biodistribution Brain ([1]; 24 Hour): 0.0033 (.0052) % ID/g | Biodistribution Heart ([1]; 24 Hour): 0.0233 (.0175) % ID/g | Biodistribution Intestine ([1]; 24 Hour): 0.123 (.0717) % ID/g | Biodistribution Kidney ([1]; 24 Hour): 0.065 (.0197) % ID/g | Biodistribution Liver ([1]; 24 Hour): 1.12 (.232) % ID/g | Biodistribution Lung ([1]; 24 Hour): 0.0633 (.0273) % ID/g | Biodistribution Muscle ([1]; 24 Hour): 0.0150 (.0084) % ID/g | Biodistribution Spleen ([1]; 24 Hour): 0.0350 (.023) % ID/g | Biodistribution Stomach ([1]; 24 Hour): 0.445 (.386) % ID/g | Biodistribution Tumor ([1]; 24 Hour): 0.553 (.241) % ID/g | amount in tumors relative to livers ([1]; 24 hrs., melanoma xenograft): about half | Biodistribution Blood ([2]; 1 hr.): 1.35 (0.42) % ID/g | Biodistribution Bone ([2]; 1 hr.): 1.85 (0.22) % ID/g | Biodistribution Brain ([2]; 1 hr.): 1.57 (0.05) % ID/g | Biodistribution Heart ([2]; 1 hr.): 2.21 (0.16) % ID/g | Biodistribution Intestine ([2]; 1 hr.): 5.64 (0.58) % ID/g | Biodistribution Kidney ([2]; 1 hr.): 7.64 (0.35) % ID/g | Biodistribution Liver ([2]; 1 hr.): 13.77 (0.72) % ID/g | Biodistribution Lung ([2]; 1 hr.): 6.38 (0.89) % ID/g | Biodistribution Spleen ([2]; 1 hr.): 3.58 (0.28) % ID/g | Biodistribution Stomach ([2]; 1 hr.): 5.41 (0.53) % ID/g | Biodistribution Thyroid ([2]; 1 hr.): 8.22 (0.72) % ID/g | Biodistribution Tumor ([2]; 1 hr.): 5.13 (0.74) % ID/g | Biodistribution Blood ([2]; 6 hr.): 0.301 (0.04) % ID/g | Biodistribution Bone ([2]; 6 hr.): 0.21 (0.01) % ID/g | Biodistribution Brain ([2]; 6 hr.): 0.23 (0.05) % ID/g | Biodistribution Heart ([2]; 6 hr.): 0.38 (0.11) % ID/g | Biodistribution Intestine ([2]; 6 hr.): 1.34 (0.27) % ID/g | Biodistribution Kidney ([2]; 6 hr.): 1.07 (0.16) % ID/g | Biodistribution Liver ([2]; 6 hr.): 5.84 (0.51) % ID/g | Biodistribution Lung ([2]; 6 hr.): 1.07 (0.14) % ID/g | Biodistribution Spleen ([2]; 6 hr.): 0.51 (0.08) % ID/g | Biodistribution Stomach ([2]; 6 hr.): 2.7 (0.98) % ID/g | Biodistribution Thyroid ([2]; 6 hr.): 1.48 (0.55) % ID/g | Biodistribution Tumor ([2]; 6 hr.): 2.17 (0.09) % ID/g | Biodistribution Blood ([2]; 24 hr.): 0.027 (0.00) % ID/g | Biodistribution Brain ([2]; 24 hr.): 0.00 (0.00) % ID/g | Biodistribution Heart ([2]; 24 hr.): 0.00 (0.00) % ID/g | Biodistribution Intestine ([2]; 24 hr.): 0.05 (0.01) % ID/g | Biodistribution Kidney ([2]; 24 hr.): 0.05 (0.00) % ID/g | Biodistribution Liver ([2]; 24 hr.): 1.25 (0.10) % ID/g | Biodistribution Lung ([2]; 24 hr.): 0.03 (0.00) % ID/g | Biodistribution Spleen ([2]; 24 hr.): 0.01 (0.00) % ID/g | Biodistribution Stomach ([2]; 24 hr.): 0.15 (0.02) % ID/g | Biodistribution Thyroid ([2]; 24 hr.): 0.03 (0.01) % ID/g | Biodistribution Tumor ([2]; 24 hr.): 0.18 (0.02) % ID/g | amount in livers relative to tumors ([2]; 24 hrs., squamous cell carcinoma xenograft): about six-fold
SMILES: CCN(CC)CCNC(=O)c1ccc([125I])cc1 [[^125I]DAB, ^125I-N-(diethylaminoethyl)4-iodobenzamide, reference compound]
